Experiment [1] has as its target c-KIT kinase (Homo sapiens (Human), UniProt P10721). As to the kind of experiment: c-KIT kinase assay (radiometric). It counts as biochemical. How it is done:
(§1) Inhibition of c-KIT kinase activity by a test compound disclosed herein was estimated by radiometric assay. Standard assay conditions were 20 ng of recombinant c-Kit (SignalChem) with 2 μg of substrate Poly-(Glu 4:Tyr 1) (sigma) in the assay buffer in kinase reaction buffer (10 mM MOPS pH 7.0, 0.21 mM EDTA, 0.5% glycerol, 0.001% Brij-35, 0.01 2-mercaptoehtanol, 1 mg/ml BSA, 10 mM MgCl2, 10 mM MnCl2, 10 μM ATP, 0.1 μCi per well [^33P]-ATP, in the presence of test compound (diluted in final concentration of 4% DMSO) or DMSO control, with a final volume of 25 μl for 60 minutes at 30° C. The reaction was stopped by adding 5 μl of 3% phosphoric acid solution. Total reaction solution was then harvested onto a filter plate (UniFilter-96 GF/B, PerkinElmer), and washed 20 times for 5 min with dH2O. 30 μl of MicroScint™-20 Cocktail (PerkinElmer) was added to dried plate. The plate was sealed and counted using a TopCount scintillation detector (PerkinElmer). […] The IC50 values of quinoxaline compounds of this invention against c-KIT kinase were determined using the GraphPad Prism 5 software.
(§2) The IC50 values for selected quinoxaline compounds of this invention against CSF-1R, c-KIT, FLT3, and PDGFRβ are summarized in Table 3.

Experiment [2] has as its system MV4-11 human acute myeloid leukemia cell with FLT3-ITD mutation. Kind of experiment: MV4-11 cell proliferation assay (CellTiter-96). It counts as cell-based. Particulars: Cytotoxicity, MV4-11 cells, 72 hours. How it is done:
(§3) Inhibition of cell growth by compounds was measured using CellTiter™-96 assay. The cytotoxicity of compounds was evaluated in CSF-1-dependent M-NFS-60 mouse myeloid leukemia cell, FLT3 signal addicted MV4-11 human acute myeloid leukemia cell with FLT3-ITD mutation, c-KIT signal addicted Kasumi-1 human acute myeloid leukemia cell with c-KIT N822K activating mutation, and THP-1 human acute monocytic leukemia cell harboring NRAS G12D mutation.
The compounds disclosed herein were tested in MV4-11 cell proliferation assay to determine their cellular potency against FLT3 kinase. MV4-11 human acute myeloid leukemia cells harbor ligand-independent FLT3-ITD activating mutation, which render its proliferation FLT3-ITD dependent. Inhibition of FLT3 kinase activity will cause reduced growth and/or cell death. […] Cells were allowed to expand until reaching saturation at which point they were subcultured or harvested for assay use.
(§4) M-NFS-60, Kasumi-1, MV4-11 and THP-1 cells were seeded into 96-well plates at 2000, 64000, 6500, and 5000 cells/well, respectively, and incubated at 37° C., 5% CO2 overnight. Then, these seeded cells were treated with increasing concentrations of the test compounds and incubated for another 72 hours. At the end of the incubation, CellTiter96® AQueous One Solution Reagent (Promega) was added and incubated for 4 hours. Cell viability was determined by measuring absorbance at 490 nm using EMax® microplate reader (Molecular Devices).

Experiment [3] has as its target FLT3 kinase (Homo sapiens (Human), UniProt P36888). Kind of experiment: FLT3 kinase assay (radiometric). It counts as biochemical. How it is done: as §1, with “of FLT3” for “of c-KIT”, “were 5” for “were 20”, “recombinant FLT3 (Thermo Fisher)” for “recombinant c-Kit (SignalChem)”, “BSA, MgCl2” for “BSA,”, “10 mM,” for “10 mM MgCl2, 10 mM MnCl2,”, “against FLT3” for “against c-KIT”
as §2

The subject of experiment [4] is THP-1 human acute monocytic leukemia cell harboring NRAS G12D mutation. Kind of experiment: THP-1 cell proliferation assay (counter screen, CellTiter-96). Format: cell-based. The note with it: Cytotoxicity, THP-1 cells (counter screen), 72 hours. How it is done:
as §3
THP-1 human acute monocytic leukemia cells harbor NRAS G12D mutation, which renders cell proliferate independently of class III RTKs signal. […] Cells were allowed to expand until reaching saturation at which point they were subcultured or harvested for assay use.
as §4
Background: The purpose of a counterscreen is to sort out artefacts and off-target activity.

For experiment [5], the target named is CSF-1R kinase (Homo sapiens (Human), UniProt P07333). As to the kind of experiment: CSF-1R kinase assay (AlphaScreen). It counts as biochemical. How it is done: Inhibition of CSF-1R kinase activity by a test compound disclosed herein was estimated by AlphaScreen (PerkinElmer). […] Reactions were incubated at 30° C. for 45 min and stopped by adding 5 μL of 50 mM EDTA. Analysis of resulting product using an AlphaScreen kit, and counted with Enspire Alpha (PerkinElmer). […] The IC50 values of quinoxaline compounds of this invention against CSF-1R kinase were determined using the GraphPad Prism 5 software.

Experiment [6] deals with CSF-1-dependent M-NFS-60 mouse myeloid leukemia cell. As to the kind of experiment: M-NFS-60 cell proliferation assay (CellTiter-96). It counts as cell-based. The note with it: Cytotoxicity, M-NFS-60 cells, 72 hours. As for the experimental part:
as §3
The compounds disclosed herein were tested in M-NFS-60 cell proliferation assay to determine their cellular potency against CSF-1R. […] Inhibition of CSF-1R kinase activity will cause reduced growth and/or cell death. […] Cells were allowed to expand until reaching saturation at which point they were subcultured or harvested for assay use.
as §4

Experiment [7] concerns Kasumi-1 human acute myeloid leukemia cell with c-KIT N822K activating mutation. Kind of experiment: Kasumi-1 cell proliferation assay (CellTiter-96). Format: cell-based. Particulars: Cytotoxicity, Kasumi-1 cells, 72 hours. How it is done:
as §3
The compounds disclosed herein were tested in Kasumi cell proliferation assay to determine their cellular potency against c-KIT kinase. Kasumi human acute myeloid leukemia cells harbor ligand-independent N822K c-KIT activating mutation, thus the cell proliferation relied on c-KIT signal. Inhibition of c-KIT kinase activity will cause reduced growth and/or cell death. […] Cells were allowed to expand until reaching saturation at which point they were subcultured or harvested for assay use.
as §4

For experiment [8], the target named is PDGFRβ kinase (Homo sapiens (Human), UniProt P09619). As to the kind of experiment: PDGFRβ kinase assay (radiometric). It counts as biochemical. Particulars: bound. How it is done: as §1, with “of PDGFRβ” for “of c-KIT”, “were 10” for “were 20”, “recombinant PDGFRβ” for “recombinant c-Kit”, “well [^33P]-ATP),” for “well [^33P]-ATP,”, “against PDGFRβ” for “against c-KIT”
as §2

Sequence of CSF-1R kinase (P07333 20-972): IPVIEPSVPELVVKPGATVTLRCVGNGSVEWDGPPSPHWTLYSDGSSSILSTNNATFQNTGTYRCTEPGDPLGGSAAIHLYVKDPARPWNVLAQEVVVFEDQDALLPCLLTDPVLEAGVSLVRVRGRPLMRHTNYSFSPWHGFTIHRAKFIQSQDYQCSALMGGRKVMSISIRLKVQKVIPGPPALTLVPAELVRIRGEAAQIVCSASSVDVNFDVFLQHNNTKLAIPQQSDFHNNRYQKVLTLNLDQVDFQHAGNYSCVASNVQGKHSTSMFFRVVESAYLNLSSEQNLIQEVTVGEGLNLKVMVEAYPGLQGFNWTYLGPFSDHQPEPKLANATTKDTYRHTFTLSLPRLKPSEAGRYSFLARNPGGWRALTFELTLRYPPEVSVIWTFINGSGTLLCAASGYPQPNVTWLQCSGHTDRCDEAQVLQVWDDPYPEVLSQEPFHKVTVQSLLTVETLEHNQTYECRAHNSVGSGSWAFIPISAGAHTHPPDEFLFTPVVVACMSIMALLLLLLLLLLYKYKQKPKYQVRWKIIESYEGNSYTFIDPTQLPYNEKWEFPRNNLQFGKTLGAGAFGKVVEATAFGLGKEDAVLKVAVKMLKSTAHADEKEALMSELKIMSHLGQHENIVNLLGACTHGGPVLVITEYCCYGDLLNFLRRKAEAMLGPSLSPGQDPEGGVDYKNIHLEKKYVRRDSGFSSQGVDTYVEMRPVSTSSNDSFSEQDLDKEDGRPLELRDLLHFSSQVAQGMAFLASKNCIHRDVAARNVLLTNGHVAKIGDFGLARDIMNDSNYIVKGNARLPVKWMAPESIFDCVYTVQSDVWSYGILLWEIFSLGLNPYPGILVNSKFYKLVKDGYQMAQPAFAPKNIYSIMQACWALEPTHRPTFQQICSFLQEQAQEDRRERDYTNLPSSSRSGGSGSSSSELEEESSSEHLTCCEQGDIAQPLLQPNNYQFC
Sequence of c-KIT kinase (P10721 26-976): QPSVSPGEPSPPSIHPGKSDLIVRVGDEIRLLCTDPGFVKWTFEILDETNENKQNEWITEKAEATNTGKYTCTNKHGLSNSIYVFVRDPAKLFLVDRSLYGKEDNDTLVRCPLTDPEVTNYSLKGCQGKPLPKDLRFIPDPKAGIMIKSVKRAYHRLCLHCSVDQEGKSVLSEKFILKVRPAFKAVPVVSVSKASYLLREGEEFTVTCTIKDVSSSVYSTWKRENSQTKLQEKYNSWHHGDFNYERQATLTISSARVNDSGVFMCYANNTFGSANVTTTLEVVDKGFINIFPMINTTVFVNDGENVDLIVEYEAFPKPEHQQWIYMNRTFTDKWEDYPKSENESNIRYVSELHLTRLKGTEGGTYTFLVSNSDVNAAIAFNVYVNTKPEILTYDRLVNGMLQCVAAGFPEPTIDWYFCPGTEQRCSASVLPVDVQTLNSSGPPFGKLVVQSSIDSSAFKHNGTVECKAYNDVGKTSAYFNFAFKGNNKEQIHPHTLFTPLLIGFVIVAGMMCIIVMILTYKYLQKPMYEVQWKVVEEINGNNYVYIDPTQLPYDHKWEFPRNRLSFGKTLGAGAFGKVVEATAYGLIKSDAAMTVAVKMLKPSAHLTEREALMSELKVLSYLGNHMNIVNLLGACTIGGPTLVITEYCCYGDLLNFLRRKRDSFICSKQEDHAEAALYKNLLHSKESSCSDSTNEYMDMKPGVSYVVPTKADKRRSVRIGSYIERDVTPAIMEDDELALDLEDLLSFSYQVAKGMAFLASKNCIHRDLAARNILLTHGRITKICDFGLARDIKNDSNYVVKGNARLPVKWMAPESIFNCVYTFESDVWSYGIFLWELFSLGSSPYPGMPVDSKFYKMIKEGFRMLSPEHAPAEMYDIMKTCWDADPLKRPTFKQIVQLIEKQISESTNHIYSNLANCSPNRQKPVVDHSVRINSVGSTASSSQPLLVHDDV
Sequence of FLT3 kinase (P36888 27-993): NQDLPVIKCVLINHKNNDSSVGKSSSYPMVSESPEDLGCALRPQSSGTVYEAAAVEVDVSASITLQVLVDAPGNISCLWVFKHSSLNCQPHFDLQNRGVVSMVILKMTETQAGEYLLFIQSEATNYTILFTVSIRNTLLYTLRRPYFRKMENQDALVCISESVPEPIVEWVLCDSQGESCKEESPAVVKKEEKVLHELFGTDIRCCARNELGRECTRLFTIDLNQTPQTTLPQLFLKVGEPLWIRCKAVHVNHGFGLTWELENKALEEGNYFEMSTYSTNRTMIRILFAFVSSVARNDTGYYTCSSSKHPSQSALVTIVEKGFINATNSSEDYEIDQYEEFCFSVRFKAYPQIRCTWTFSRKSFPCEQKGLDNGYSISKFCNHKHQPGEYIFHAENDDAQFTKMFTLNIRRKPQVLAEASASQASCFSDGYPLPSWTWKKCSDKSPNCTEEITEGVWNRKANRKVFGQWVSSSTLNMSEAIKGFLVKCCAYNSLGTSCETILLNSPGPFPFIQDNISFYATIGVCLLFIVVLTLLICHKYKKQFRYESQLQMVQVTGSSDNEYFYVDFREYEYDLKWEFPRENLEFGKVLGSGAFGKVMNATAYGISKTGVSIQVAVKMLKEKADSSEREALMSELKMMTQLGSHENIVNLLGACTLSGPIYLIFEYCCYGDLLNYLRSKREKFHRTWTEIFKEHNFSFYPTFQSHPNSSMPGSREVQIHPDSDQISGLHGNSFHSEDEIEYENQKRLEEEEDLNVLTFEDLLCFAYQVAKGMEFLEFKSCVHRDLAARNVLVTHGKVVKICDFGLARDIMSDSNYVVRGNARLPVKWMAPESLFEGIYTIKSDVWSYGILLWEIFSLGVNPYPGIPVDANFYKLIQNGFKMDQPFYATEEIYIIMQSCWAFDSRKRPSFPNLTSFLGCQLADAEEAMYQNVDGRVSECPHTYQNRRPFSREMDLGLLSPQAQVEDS
Sequence of PDGFRβ kinase (P09619 33-1106): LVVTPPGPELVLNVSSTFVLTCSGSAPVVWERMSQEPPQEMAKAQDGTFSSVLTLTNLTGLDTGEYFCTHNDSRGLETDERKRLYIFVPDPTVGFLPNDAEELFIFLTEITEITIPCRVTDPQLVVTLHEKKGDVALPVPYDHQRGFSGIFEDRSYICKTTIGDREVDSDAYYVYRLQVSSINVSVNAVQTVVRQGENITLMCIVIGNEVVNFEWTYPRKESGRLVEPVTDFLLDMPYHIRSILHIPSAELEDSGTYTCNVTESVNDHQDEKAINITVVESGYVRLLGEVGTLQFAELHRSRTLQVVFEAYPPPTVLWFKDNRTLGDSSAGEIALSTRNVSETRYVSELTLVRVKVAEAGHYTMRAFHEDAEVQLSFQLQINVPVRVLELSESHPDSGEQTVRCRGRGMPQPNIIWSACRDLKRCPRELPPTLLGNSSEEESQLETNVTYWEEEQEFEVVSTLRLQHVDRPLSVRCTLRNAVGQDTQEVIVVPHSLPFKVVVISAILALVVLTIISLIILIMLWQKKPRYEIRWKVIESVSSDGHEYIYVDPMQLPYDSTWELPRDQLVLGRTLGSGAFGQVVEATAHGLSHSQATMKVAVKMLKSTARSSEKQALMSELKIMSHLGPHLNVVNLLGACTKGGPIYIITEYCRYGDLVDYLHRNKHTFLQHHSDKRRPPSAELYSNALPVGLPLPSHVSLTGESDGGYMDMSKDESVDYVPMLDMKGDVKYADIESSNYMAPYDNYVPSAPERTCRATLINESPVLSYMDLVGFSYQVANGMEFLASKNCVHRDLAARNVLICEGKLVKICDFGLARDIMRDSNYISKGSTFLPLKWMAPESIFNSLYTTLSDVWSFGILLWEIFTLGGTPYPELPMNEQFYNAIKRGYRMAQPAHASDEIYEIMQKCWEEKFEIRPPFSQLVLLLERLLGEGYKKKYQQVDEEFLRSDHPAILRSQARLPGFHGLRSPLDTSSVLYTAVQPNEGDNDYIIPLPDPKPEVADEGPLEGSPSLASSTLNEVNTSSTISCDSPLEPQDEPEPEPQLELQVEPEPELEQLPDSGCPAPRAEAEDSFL

Regarding `COc1ccc(COc2ccc(Nc3ccc4ncc(N5CCOCC5)nc4c3C#N)cc2Cl)cc1` [Example 63, 6-((3-chloro-4-((4-methoxybenzyl)oxy)phenyl)amino)-3-morpholinoquinoxaline-5-carbonitrile], the IC50 in experiment [1] (bound) was more than 1000 nM; in experiment [2], more than 10000 nM; in experiment [3] (bound), more than 1000 nM; in experiment [4], more than 10000 nM; in experiment [5] (class symbol), less than 100 nM; in experiment [6], 1000 to 10000 nM. In addition, the IC50 in experiment [7] was more than 10000 nM; in experiment [8], more than 1000 nM.

As for `COc1ccc(COc2ccc(Nc3ccc4ncc(-n5ccnc5)nc4c3C#N)cc2OC)cn1` [Example 70, 3-(1H-imidazol-1-yl)-6-((3-methoxy-4-((6-methoxypyridin-3-yl)methoxy)phenyl)amino)quinoxaline-5-carbonitrile], the IC50 in experiment [1] (bound) is more than 1000 nM; in experiment [3] (bound), more than 1000 nM; in experiment [5] (class symbol), less than 100 nM; in experiment [8] it was more than 1000 nM.

As to `CCOc1ccc(COc2ccc(Nc3ccc4ncc(OC)nc4c3C#N)cc2OC)cc1` [Example 20, 6-((4-((4-ethoxybenzyl)oxy)-3-methoxyphenyl)amino)-3-methoxyquinoxaline-5-carbonitrile], the IC50 was less than 100 nM in experiment [1] (class symbol); more than 10000 nM in experiment [2]; more than 1000 nM in experiment [3] (bound); more than 10000 nM in experiment [4]; 300 to 1000 nM in experiment [5] (class symbol); more than 10000 nM in experiment [6]. Also, the IC50 was 1000 to 10000 nM in experiment [7] and more than 1000 nM in experiment [8].

Take `COc1cc(Nc2ccc3ncc(N4CCOCC4)nc3c2C#N)ccc1OCC1CCCO1` (stereo not drawn) [Example 123, 6-((3-methoxy-4-((tetrahydrofuran-2-yl)methoxy)phenyl)amino)-3-morpholinoquinoxaline-5-carbonitrile]: the IC50 was 300 to 1000 nM in experiment [1] (class symbol); 1000 to 10000 nM in experiment [2]; more than 1000 nM in experiment [3] (bound); more than 10000 nM in experiment [4]; more than 1000 nM in experiment [5] (bound); more than 10000 nM in experiment [6]. Moreover, the results for the IC50 in experiment [7] and in experiment [8] were 1000 to 10000 nM and more than 1000 nM, respectively.

In the case of `COc1ccc(COc2ccc(Nc3ccc4ncc(OC)nc4c3C#N)cc2OC)cc1` [Example 3, 3-methoxy-6-((3-methoxy-4-((4-methoxybenzyl)oxy)phenyl)amino)quinoxaline-5-carbonitrile], the IC50 was 100 to 300 nM in experiment [1] (class symbol), more than 1000 nM in experiment [3] (bound), 300 to 1000 nM in experiment [5] (class symbol) and more than 1000 nM in experiment [8].

For the compound `COc1cc(Nc2ccc3ncc(N4CCOCC4)nc3c2C#N)ccc1OCc1ccccn1` [Example 57, 6-((3-methoxy-4-(pyridin-2-ylmethoxy)phenyl)amino)-3-morpholinoquinoxaline-5-carbonitrile], the 50% inhibitory concentration (IC50) was 300 to 1000 nM in experiment [1] (class symbol), more than 1000 nM in experiment [3] (bound), more than 1000 nM in experiment [5] (bound) and more than 1000 nM in experiment [8].

Regarding `COc1cc(Nc2ccc3ncc(N4CCOCC4)nc3c2C#N)ccc1OCc1ccc(C)[n+]([O-])c1` [Example 146, 6-((3-methoxy-4-((6-methyl-1-(λ^1-oxidaneyl)-1λ^4-pyridin-3-yl)methoxy)phenyl)amino)-3-morpholinoquinoxaline-5-carbonitrile], the 50% inhibitory concentration (IC50) in experiment [1] (class symbol) was 100 to 300 nM; in experiment [2], 1000 to 10000 nM; in experiment [3] (class symbol) it was 100 to 300 nM; in experiment [4], more than 10000 nM; in experiment [6], 1000 to 10000 nM; in experiment [7] it was 1000 to 10000 nM.

As to `COc1cnc2ccc(Nc3ccc(OCc4ccc(OC)c(C#N)c4)c(OC)c3)c(C#N)c2n1` [Example 140, 6-((4-((3-cyano-4-methoxybenzyl)oxy)-3-methoxyphenyl)amino)-3-methoxyquinoxaline-5-carbonitrile], the IC50 was more than 1000 nM in experiment [1] (bound), more than 1000 nM in experiment [3] (bound), 100 to 300 nM in experiment [5] (class symbol) and more than 1000 nM in experiment [8].

Take `COc1cc(Nc2ccc3ncc(N4CCOCC4)nc3c2C#N)ccc1OCc1cncn1C` [Example 55, 6-((3-methoxy-4-((1-methyl-1H-imidazol-5-yl)methoxy)phenyl)amino)-3-morpholinoquinoxaline-5-carbonitrile]: the IC50 was 300 to 1000 nM in experiment [1] (class symbol), more than 1000 nM in experiment [3] (bound), more than 1000 nM in experiment [5] (bound) and more than 1000 nM in experiment [8].

Take `COc1cc(Nc2ccc3ncc(N4CCOCC4)nc3c2C#N)ccc1OCC1CCN(C)CC1` [Example 42, 6-((3-methoxy-4-((1-methylpiperidin-4-yl)methoxy)phenyl)amino)-3-morpholinoquinoxaline-5-carbonitrile]: the IC50 was 1000 to 10000 nM in experiment [2], more than 10000 nM in experiment [4], 1000 to 10000 nM in experiment [6] and 1000 to 10000 nM in experiment [7].

One may read the IC50 as the concentration that gives 50% inhibition.

These data come from patent publication US10689362B2, “Quinoxaline compounds as type III receptor tyrosine kinase inhibitors” (Development Center for Biotechnology, priority 2016, dated 2020).
